Reference: patent US11649227B2, “Allosteric chromenone inhibitors of phosphoinositide 3-kinase (PI3K) for the treatment of disease” (Petra Pharma Corporation, priority 2020, dated 2023)

Columns and labels:
[1] = molecular target: human full length PIK3CA Wild-type (p110α/p85α complex) (Homo sapiens (Human), UniProt P42336); assay: PI3K-Alpha kinase (PIK3CA) activity, wild-type, Transcreener ADP2 FI assay; conditions: PI3K-α (PIK3CA) wild-type, biochemical
Experimental: (§1) PI3K-Alpha kinase (PIK3CA) activity, wild-type and H1047R mutant and determining IC50 values for inhibitors
(§2) Recombinant, catalytically active human full length PIK3KA Wild-type and H1047R mutant were purchased as 1:1 complex of N-terminal 6×his tagged p110<(catalytic) and untagged p85<(regulatory subunit) from EMD Millipore Sigma (cat. no. 14-602M and 14-792M, respectively). The enzyme stocks were diluted to 5× stocks in buffer (20 mM HEPES pH 7.4, 100 mM NaCl, 0.5 mM EGTA, 0.01% triton-x-100) just before use. PIP2diC8 (Avanti Polar Lipids Inc., cat. no. 850185) or phosphoinositol-4,5-bisphosphate with phosphoserine (PIP2:PS) membrane (Thermo Fisher Scientific, cat. no. PV5100) was used as lipid substrates. PIP2diC8 lyophilized powder and PIP2:PS (1:19) membrane stock (1 mM in PIP2) were separately dissolved in milliQ water to a concentration of 250 uM and stored in −20° C. 10 mM stocks of compounds were serially diluted (3×) in neat DMSO and stored in a dessicator at room temperature. 5× compound stocks in 25% DMSO were prepared fresh from neat DMSO stocks. Wild-type (WT) and H1047R mutant protein, along with buffer components (except ATP), were incubated with or without compound at 27° C. for 1h. After incubation, the reaction was initiated by the addition of 5 uL of 125 uM ATP. A typical assay mixture (25 uL) comprised 40 mM HEPES buffer, pH 7.4, 25 mM MgCl2, 0.01% v/v triton-X-100, 5% v/v DMSO, 20 mM NaCl, 1-5 nM wt or H1047R, 25 uM ATP, and 50 uM PTP2diC8 or PTP2 in membrane. The reaction was allowed to proceed until about […] (2.5 uM ADP) after which time, 10 uL of reaction mixture was quenched with 25 uL of transcreener reagent (Transcreener ADP2 FI assay kit, BellBrook labs, Cat. No. 3013). The contents were incubated at rt for 1h and fluorescence was measured using a plate reader (Paradigm, Molecular Devices). The same assay was also run at pH 6.0 or 6.4 using MOPS buffer (Fisher BioReagents, CAS 1132-61-2). A calibration curve was generated under identical buffer conditions with varying ADP amounts. Using that, the observed fluorescence was converted to uM ADP. A plot between [ADP] and log[I] yielded the dose-response curves that enabled the calculation of IC50s.

[2] = molecular target: human full length PIK3CA H1047R mutant (p110α/p85α complex) (Homo sapiens (Human), UniProt P42336, H1047R); assay: PI3K-Alpha kinase (PIK3CA) activity, H1047R mutant, Transcreener ADP2 FI assay; conditions: PI3K-α (PIK3CA) H1047R mutant, biochemical
Experimental: as §1, §2

Chain of human full length PIK3CA Wild-type (p110α/p85α complex) (P42336 whole entry): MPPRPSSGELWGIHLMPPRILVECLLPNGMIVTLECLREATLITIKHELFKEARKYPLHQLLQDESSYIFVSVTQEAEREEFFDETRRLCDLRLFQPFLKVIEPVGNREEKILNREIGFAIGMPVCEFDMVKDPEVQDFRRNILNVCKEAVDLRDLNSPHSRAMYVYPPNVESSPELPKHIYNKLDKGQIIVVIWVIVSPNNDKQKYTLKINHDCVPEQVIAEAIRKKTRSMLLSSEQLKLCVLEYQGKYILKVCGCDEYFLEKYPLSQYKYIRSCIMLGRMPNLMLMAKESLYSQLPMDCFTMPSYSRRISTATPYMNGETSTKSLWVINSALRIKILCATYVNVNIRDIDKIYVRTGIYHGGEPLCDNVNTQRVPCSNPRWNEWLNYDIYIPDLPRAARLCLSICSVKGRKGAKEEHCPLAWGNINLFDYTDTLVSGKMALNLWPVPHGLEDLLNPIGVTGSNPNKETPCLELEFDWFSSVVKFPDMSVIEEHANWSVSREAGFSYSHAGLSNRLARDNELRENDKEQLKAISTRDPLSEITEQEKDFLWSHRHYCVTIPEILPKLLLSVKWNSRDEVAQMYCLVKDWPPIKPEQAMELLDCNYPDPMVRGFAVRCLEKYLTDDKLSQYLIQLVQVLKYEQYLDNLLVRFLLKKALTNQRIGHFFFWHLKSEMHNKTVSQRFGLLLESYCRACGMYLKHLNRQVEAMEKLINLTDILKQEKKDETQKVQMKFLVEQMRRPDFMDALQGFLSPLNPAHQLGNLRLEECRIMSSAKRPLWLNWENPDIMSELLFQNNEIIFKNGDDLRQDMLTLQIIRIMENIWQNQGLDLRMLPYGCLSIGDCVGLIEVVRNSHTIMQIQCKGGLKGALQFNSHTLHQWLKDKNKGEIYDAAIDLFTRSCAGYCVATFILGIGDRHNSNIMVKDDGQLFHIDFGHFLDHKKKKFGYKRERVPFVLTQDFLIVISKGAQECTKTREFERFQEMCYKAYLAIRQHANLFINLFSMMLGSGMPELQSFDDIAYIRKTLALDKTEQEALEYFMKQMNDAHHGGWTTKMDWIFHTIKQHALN
Chain of human full length PIK3CA Wild-type (p110α/p85α complex) (P27986 whole entry partner): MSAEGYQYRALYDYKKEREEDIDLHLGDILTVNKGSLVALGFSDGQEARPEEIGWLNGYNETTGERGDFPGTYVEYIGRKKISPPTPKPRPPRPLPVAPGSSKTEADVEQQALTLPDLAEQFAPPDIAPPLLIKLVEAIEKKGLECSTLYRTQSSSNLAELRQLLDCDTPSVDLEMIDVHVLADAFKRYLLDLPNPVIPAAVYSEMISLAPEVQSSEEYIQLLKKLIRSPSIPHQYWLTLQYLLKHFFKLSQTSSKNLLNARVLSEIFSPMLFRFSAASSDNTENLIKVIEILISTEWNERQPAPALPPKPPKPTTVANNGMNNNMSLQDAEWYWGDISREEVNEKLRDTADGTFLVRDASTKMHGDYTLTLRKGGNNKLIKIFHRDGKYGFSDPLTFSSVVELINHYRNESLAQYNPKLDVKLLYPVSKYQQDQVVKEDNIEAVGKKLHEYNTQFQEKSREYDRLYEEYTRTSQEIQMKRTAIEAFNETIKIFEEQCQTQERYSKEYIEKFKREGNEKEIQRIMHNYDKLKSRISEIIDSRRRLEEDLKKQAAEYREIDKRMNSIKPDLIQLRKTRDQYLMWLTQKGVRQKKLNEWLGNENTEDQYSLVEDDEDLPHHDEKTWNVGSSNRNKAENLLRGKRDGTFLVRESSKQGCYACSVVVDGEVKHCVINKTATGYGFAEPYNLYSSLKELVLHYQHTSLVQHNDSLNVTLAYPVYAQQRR
Chain of human full length PIK3CA H1047R mutant (p110α/p85α complex) (P42336 whole entry H1047R): as the sequence (P42336 whole entry) above, with H1047R counted along it
Chain of human full length PIK3CA H1047R mutant (p110α/p85α complex) (P27986 whole entry partner): as the sequence (P27986 whole entry partner) above

Row | Structure (SMILES) | IC50 [1] [nM] | IC50 [2] [nM]
1 | Cc1cc(C(C)Nc2cccc3cc(C(=O)O)sc23)c2oc(N3CCC(C)(C)CC3)cc(=O)c2c1 (stereo not drawn) [Example 46, 7-[1-[2-(4,4-Dimethyl-1-piperidyl)-6-methyl-4-oxo-chromen-8-yl]ethylamino]benzothiophene-2-carboxylic acid] | 1000 to 5000 | 500 to 1000
2 | Cc1cc(C(C)Nc2sc(Cl)nc2C(=O)O)c2oc(N3Cc4ccccc4C3)cc(=O)c2c1 (stereo not drawn) [Example 245, 2-Chloro-5-[1-(2-isoindolin-2-yl-6-methyl-4-oxo-chromen-8-yl)ethylamino]thiazole-4-carboxylic acid 2,2,2-trifluoroacetic acid] | 500 to 1000 | –
3 | Cc1cc(C(C)Nc2ccccc2C(=O)O)c2oc(N3CC4(CCCCC4)C3)cc(=O)c2c1 (stereo not drawn) [Example 88, 2-[1-[2-(2-Azaspiro[3.5]nonan-2-yl)-6-methyl-4-oxo-chromen-8-yl]ethylamino]benzoic acid] | 5000 to 10000 | –
4 | Cc1cc(C(C)Nc2ccccc2C(=O)O)c2oc(N3CCc4ccccc4C3)cc(=O)c2c1 (stereo not drawn) [Example 233, 2-[1-[2-(3,4-Dihydro-1H-isoquinolin-2-yl)-6-methyl-4-oxo-chromen-8-yl]ethylamino]benzoic acid] | 1000 to 5000 | –
5 | Cc1cc([C@@H](C)Nc2ccccc2C(=O)O)c2oc(N3CC4(CCC4(F)F)C3)c(C)c(=O)c2c1 [Example 289, 2-[[(1R)-1-[2-(7,7-Difluoro-2-azaspiro[3.3]heptan-2-yl)-3,6-dimethyl-4-oxo-chromen-8-yl]ethyl]amino]benzoic acid] | 500 to 1000 | –
6 | Cc1cc(C(C)Nc2ccccc2C(=O)O)c2oc(N3CC4CCC(C3)O4)cc(=O)c2c1 (stereo not drawn) [Example 82, 2-[1-[6-Methyl-2-(8-oxa-3-azabicyclo[3.2.1]octan-3-yl)-4-oxo-chromen-8-yl]ethylamino]benzoic acid] | – | 1000 to 5000
7 | CC(Nc1ccccc1C(=O)O)c1cc(F)cc2c(=O)cc(N3CCC(F)(F)CC3)oc12 (stereo not drawn) [Example 399] | 1000 to 5000 | –
8 | CC(Nc1ccccc1C(=O)O)c1cc(C(F)(F)F)cc2c(=O)cc(N3CCC(F)(F)CC3)oc12 (stereo not drawn) [Example 396, 2-[1-[2-(4,4-Difluoro-1-piperidyl)-4-oxo-6-(trifluoromethyl)chromen-8-yl]ethylamino]benzoic acid 2,2,2-trifluoroacetic acid] | 1000 to 5000 | –
9 | Cc1cc(C(C)Nc2ccccc2C(=O)O)c2oc(N3CCS(=O)(=O)CC3)cc(=O)c2c1 (stereo not drawn) [Example 117, 2-[1-[2-(1,1-Dioxo-1,4-thiazinan-4-yl)-6-methyl-4-oxo-chromen-8-yl]ethylamino]benzoic acid] | – | 1000 to 5000
10 | Cc1cc(C(C)Nc2ccccc2C(=O)O)c2oc(N3CC(N(C)C)C3)cc(=O)c2c1 (stereo not drawn) [Example 68, 2-[1-[2-[3-(Dimethylamino)azetidin-1-yl]-6-methyl-4-oxo-chromen-8-yl]ethylamino]benzoic acid] | – | 1000 to 5000
11 | Cc1cc(C(C)Nc2ccccc2C(=O)O)c2oc(N3CC(C(C)(F)F)C3)cc(=O)c2c1 (stereo not drawn) [Example 189, 2-[1-[2-[3-(1,1-Difluoroethyl)azetidin-l-yl]-6-methyl-4-oxo-chromen-8-yl]ethylamino]benzoic acid 2,2,2-trifluoroacetic acid] | 1000 to 5000 | –
12 | Cc1cc(C(C)Nc2ccccc2C(=O)O)c2oc(N3CCCC(C)(C)C3)cc(=O)c2c1 (stereo not drawn) [Example 65, 2-[1-[2-(3,3-Dimethyl-1-piperidyl)-6-methyl-4-oxo-chromen-8-yl]ethylamino]benzoic acid] | 5000 to 10000 | –
13 | Cc1cc(C(C)Nc2ccc(Cl)nc2C(=O)O)c2oc(N3Cc4ccc(F)cc4C3)cc(=O)c2c1 (stereo not drawn) [Example 297, 6-Chloro-3-[1-[2-(5-fluoroisoindolin-2-yl)-6-methyl-4-oxo-chromen-8-yl]ethylamino]pyridine-2-carboxylic acid] | 1000 to 5000 | –
14 | Cc1cc(C(C)Nc2ccccc2C(=O)O)c2oc(N3CCCC4(CNC(=O)C4)C3)cc(=O)c2c1 (stereo not drawn) [Example 61, 2-[1-[6-Methyl-4-oxo-2-(3-oxo-2,7-diazaspiro[4.5]decan-7-yl)chromen-8-yl]ethylamino]benzoic acid] | – | 1000 to 5000
15 | COC1CCN(c2cc(=O)c3cc(C)cc(C(C)Nc4ccccc4C(=O)O)c3o2)CC1 (stereo not drawn) [Example 373, 2-[1-[2-(4-Methoxy-1-piperidyl)-6-methyl-4-oxo-chromen-8-yl]ethylamino]benzoic acid] | – | 500 to 1000
16 | Cc1cc(C(C)Nc2cccc(F)c2C(=O)O)c2oc(N3Cc4ccc(F)cc4C3)cc(=O)c2c1 (stereo not drawn) [Example 238, 2-Fluoro-6-[1-[2-(5-fluoroisoindolin-2-yl)-6-methyl-4-oxo-chromen-8-yl]ethylamino]benzoic acid] | – | 1000 to 5000
17 | Cc1cc(C(C)Nc2ccccc2C(=O)O)c2oc(N3CCn4cccc4C3)cc(=O)c2c1 (stereo not drawn) [Example 171, 2-[1-[2-(3,4-Dihydro-1H-pyrrolo[1,2-a]pyrazin-2-yl)-6-methyl-4-oxo-chromen-8-yl]ethylamino]benzoic acid] | 500 to 1000 | –
18 | CNC(=O)C1CCN(c2cc(=O)c3cc(C)cc(C(C)Nc4ccccc4C(=O)O)c3o2)CC1 (stereo not drawn) [Example 371, 2-[1-[6-Methyl-2-[4-(methylcarbamoyl)-1-piperidyl]-4-oxo-chromen-8-yl]ethylamino]benzoic acid] | – | 1000 to 5000
19 | Cc1cc(C(C)Nc2ccccc2C(=O)O)c2oc(N3Cc4ccc(F)cc4C3)cc(=O)c2c1 (stereo not drawn) [Example 105, 2-[1-[2-(5-Fluoroisoindolin-2-yl)-6-methyl-4-oxo-chromen-8-yl]ethylamino]benzoic acid] | 5000 to 10000 | –
20 | Cc1cc(C(C)Nc2ccccc2C(=O)O)c2oc(N3CC4CC(C4)C3)cc(=O)c2c1 (stereo not drawn) [Example 177, 2-[1-[2-(3-Azabicyclo[3.1.1]heptan-3-yl)-6-methyl-4-oxo-chromen-8-yl]ethylamino]benzoic acid 2,2,2-trifluoroacetic acid] | 1000 to 5000 | –
21 | COc1ccc(NC(C)c2cc(C)cc3c(=O)cc(N4Cc5ccccc5C4)oc23)c(C(=O)O)n1 (stereo not drawn) [Example 237, 3-[1-(2-Isoindolin-2-yl-6-methyl-4-oxo-chromen-8-yl)ethylamino]-6-methoxy-pyridine-2-carboxylic acid] | – | 5000 to 10000
22 | Cc1cc(C(C)Nc2ccccc2C(=O)O)c2oc(NC34CC5CC(CC(CO)(C5)C3)C4)cc(=O)c2c1 (stereo not drawn) [Example 169] | – | 1000 to 5000
23 | Cc1cc(C(C)Nc2ccccc2C(=O)O)c2oc(N3CCn4cnnc4C3)cc(=O)c2c1 (stereo not drawn) [Example 163, 2-[1-[2-(6,8-Dihydro-5H-[1,2,4]triazolo[4,3-a]pyrazin-7-yl)-6-methyl-4-oxo-chromen-8-yl]ethylamino]benzoic acid] | – | 1000 to 5000
24 | Cc1cc(C(C)Nc2ccc(Cl)nc2C(=O)O)c2oc(N3CCC4(CC3)CC4)c(C)c(=O)c2c1 (stereo not drawn) [Example 302, 3-[1-[2-(6-Azaspiro[2.5]octan-6-yl)-3,6-dimethyl-4-oxo-chromen-8-yl]ethylamino]-6-chloro-pyridine-2-carboxylic acid] | 500 to 1000 | –
25 | CCc1c(N2CCC(C)(C)CC2)oc2c(C(C)Nc3ccccc3C(=O)O)cc(C)cc2c1=O (stereo not drawn) [Example 55, 2-[1-[2-(4,4-dimethyl-1-piperidyl)-3-ethyl-6-methyl-4-oxo-chromen-8-yl]ethylamino]benzoic acid] | 1000 to 5000 | –
26 | Cc1cc([C@@H](C)Nc2ccccc2C(=O)O)c2oc(N3CCC(C#N)(c4ccccc4)CC3)c(C)c(=O)c2c1 [Example 288, 2-[[(1R)-1-[2-(4-Cyano-4-phenyl-1-piperidyl)-3,6-dimethyl-4-oxo-chromen-8-yl]ethyl]amino]benzoic acid] | 500 to 1000 | –
27 | CC(Nc1ccccc1C(=O)O)c1cc(F)cc2c(=O)cc(N3CCC4(CC3)CC4)oc12 (stereo not drawn) [Example 398, 2-[1-[2-(6-Azaspiro[2.5]octan-6-yl)-6-fluoro-4-oxo-chromen-8-yl]ethylamino]benzoic acid 2,2,2-trifluoroacetic acid] | 1000 to 5000 | –
28 | Cc1cc(C(C)Nc2ccsc2C(=O)O)c2oc(N3CCC(C)(C)CC3)cc(=O)c2c1 (stereo not drawn) [Example 39, 3-[1-[2-(4,4-Dimethyl-1-piperidyl)-6-methyl-4-oxo-chromen-8-yl]ethylamino]thiophene-2-carboxylic acid] | – | 1000 to 5000
29 | Cc1cc(C(C)Nc2ccc(Cl)nc2C(=O)O)c2oc(N3Cc4ccc5c(c4C3)OCO5)cc(=O)c2c1 (stereo not drawn) [Example 299, 6-Chloro-3-[1-[2-(6,8-dihydro-[1,3]dioxolo[4,5-e]isoindol-7-yl)-6-methyl-4-oxo-chromen-8-yl]ethylamino]pyridine-2-carboxylic acid] | 500 to 1000 | –
